Results reported in the supplement of paper PMC4723716.
Structures can show the parent of a compound that is named as a salt.

Tested on: Plasmodium falciparum NF54 gametocytes
Settings: 384, incubation time: 72 h
Description: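 Known antimalarials and MMV control compounds in dose response against each stage (I–V) […] The fitted EC50 is reported as IC50 in µM; '>' marks the top dose reached without a curve.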

[1] = gametocyte stage: Stage I Dose Response IC50 (µM), assay protocol: TSSA
[2] = gametocyte stage: Stage II Dose Response IC50 (µM), assay protocol: TSSA
[3] = gametocyte stage: Stage III Dose Response IC50 (µM), assay protocol: TSSA
[4] = gametocyte stage: Stage IV Dose Response IC50 (µM), assay protocol: TSSA
[5] = gametocyte stage: Stage V Dose Response IC50 (µM), assay protocol: TSSA
[6] = gametocyte stage: Stage I Dose Response IC50 (µM), assay protocol: SaLSSA
[7] = gametocyte stage: Stage II Dose Response IC50 (µM), assay protocol: SaLSSA
[8] = gametocyte stage: Stage III Dose Response IC50 (µM), assay protocol: SaLSSA
[9] = gametocyte stage: Stage IV Dose Response IC50 (µM), assay protocol: SaLSSA
[10] = gametocyte stage: Stage V Dose Response IC50 (µM), assay protocol: SaLSSA

COc1cc(N[C@H](C)CCCN)c2nccc(C)c2c1Oc1ccc(Cl)c(Cl)c1 [NPC-1161B]
IC50 of gametocyte viability [1]: 5.21 µM
IC50 of gametocyte viability [2]: 6.63 µM
IC50 of gametocyte viability [3]: 4.57 µM
IC50 of gametocyte viability [4]: 6.24 µM
IC50 of gametocyte viability [5]: 5.22 µM

C[C@H]1[C@H](OC(=O)CCC(=O)O)O[C@@H]2O[C@@]3(C)CC[C@H]4[C@H](C)CC[C@@H]1[C@@]24OO3 [Artesunate]
IC50 of gametocyte viability [1]: 0.00565 µM
IC50 of gametocyte viability [2]: 0.00577 µM
IC50 of gametocyte viability [3]: 0.0172 µM
IC50 of gametocyte viability [4]: 0.02 µM
IC50 of gametocyte viability [5]: > 12.5 µM

CNc1ccc(N(C)C(=O)c2cn3c(-c4ccc(Cl)cc4)cnc3cn2)cc1 [KDU691]
IC50 of gametocyte viability [6]: 0.532 µM
IC50 of gametocyte viability [7]: 0.565 µM
IC50 of gametocyte viability [8]: 0.354 µM
IC50 of gametocyte viability [9]: 0.237 µM
IC50 of gametocyte viability [10]: 0.15 µM

CC(C)NC(=N)NC(=N)Nc1ccc(Cl)c(Cl)c1 [Chlorproguanil hydrochloride/1.11]
IC50 of gametocyte viability [6]: 9.35 µM
IC50 of gametocyte viability [1]: > 12.5 µM
IC50 of gametocyte viability [7]: 7.79 µM
IC50 of gametocyte viability [2]: > 12.5 µM
IC50 of gametocyte viability [8]: 7.87 µM
IC50 of gametocyte viability [3]: 8.37 µM
IC50 of gametocyte viability [9]: 5.21 µM
IC50 of gametocyte viability [4]: 7.57 µM
IC50 of gametocyte viability [10]: 4.8 µM
IC50 of gametocyte viability [5]: > 11 µM

CC(C)NC(=N)NC(=N)Nc1ccc(Cl)cc1 [proguanil hydrochloride/1.14]
IC50 of gametocyte viability [6]: > 12.5 µM
IC50 of gametocyte viability [7]: > 12.5 µM
IC50 of gametocyte viability [8]: > 12.5 µM
IC50 of gametocyte viability [9]: > 12.5 µM
IC50 of gametocyte viability [10]: > 12.5 µM

CC[C@H](C)[C@H](NC(=O)[C@H]([C@@H](C)CC)N(C)C(C)=O)C(=O)N[C@H](C(=O)N[C@@H](CC(C)C)C(=O)[C@@]1(C)CO1)[C@@H](C)O [Epoxomycin]
IC50 of gametocyte viability [10]: 0.0128 µM

O[C@@H](c1cc(C(F)(F)F)nc2c(C(F)(F)F)cccc12)[C@H]1CCCCN1 (racemic) [Mefloquine (Racemic)]
IC50 of gametocyte viability [6]: 0.0441 µM
IC50 of gametocyte viability [7]: 0.052 µM
IC50 of gametocyte viability [8]: 0.143 µM
IC50 of gametocyte viability [9]: 0.818 µM
IC50 of gametocyte viability [10]: 0.132 µM

COc1cc(C)c2c(Oc3cccc(C(F)(F)F)c3)c(OC)cc(NC(C)CCCN)c2n1 (stereo unspecified) [Tafenoquine] [listing 1 of 2 here]
IC50 of gametocyte viability [6]: 4.56 µM
IC50 of gametocyte viability [7]: 3.68 µM
IC50 of gametocyte viability [8]: 3.74 µM
IC50 of gametocyte viability [9]: 3.48 µM
IC50 of gametocyte viability [10]: 2.45 µM

CC(C)(C)NCc1cc(Nc2ccnc3cc(Cl)ccc23)c2c(c1O)CCCC2 [Naphthoquine]
IC50 of gametocyte viability [6]: 0.0251 µM
IC50 of gametocyte viability [7]: 0.0145 µM
IC50 of gametocyte viability [8]: 0.296 µM
IC50 of gametocyte viability [9]: > 4.17 µM
IC50 of gametocyte viability [10]: > 4.17 µM

CC1(C)c2nc(-c3ccc(F)cc3)c(Nc3ccc(Cl)cc3)n2CCN1C(=O)CN [KAF(GNF)179]
IC50 of gametocyte viability [6]: 0.341 µM
IC50 of gametocyte viability [7]: 0.0641 µM
IC50 of gametocyte viability [8]: 0.0199 µM
IC50 of gametocyte viability [9]: 0.00915 µM
IC50 of gametocyte viability [10]: 0.00336 µM

CCc1nc(N)nc(N)c1OCCCOc1ccccc1CCC(=O)O [P218.HCl]
IC50 of gametocyte viability [6]: > 12.5 µM
IC50 of gametocyte viability [7]: > 12.5 µM
IC50 of gametocyte viability [8]: > 12.5 µM
IC50 of gametocyte viability [9]: > 12.5 µM
IC50 of gametocyte viability [10]: > 12.5 µM

COc1ccc2nc3cc(Cl)ccc3c(Nc3cc(CN4CCCC4)c(O)c(CN4CCCC4)c3)c2n1 [Pyronaridine phosphate]
IC50 of gametocyte viability [1]: 0.0101 µM
IC50 of gametocyte viability [2]: 0.0125 µM
IC50 of gametocyte viability [3]: 0.315 µM
IC50 of gametocyte viability [4]: 3.82 µM
IC50 of gametocyte viability [5]: 3.16 µM

COc1cc(C)c2c(Oc3cccc(C(F)(F)F)c3)c(OC)cc(NC(C)CCCN)c2n1 (stereo unspecified) [Tafenoquine] [listing 2 of 2 here]
IC50 of gametocyte viability [1]: 5.3 µM
IC50 of gametocyte viability [2]: 7.55 µM
IC50 of gametocyte viability [3]: 7.03 µM
IC50 of gametocyte viability [4]: 6.87 µM
IC50 of gametocyte viability [5]: 0.919 µM

CCCCN(CCCC)CC(O)c1cc(Cl)cc2c1-c1ccc(Cl)cc1/C2=C/c1ccc(Cl)cc1 (stereo unspecified) [Lumefantrine]
IC50 of gametocyte viability [1]: 0.0224 µM
IC50 of gametocyte viability [2]: 0.0352 µM
IC50 of gametocyte viability [3]: 0.0227 µM
IC50 of gametocyte viability [4]: > 9.77 µM
IC50 of gametocyte viability [5]: > 12.5 µM

N=C(N)c1ccc(OCCCCCOc2ccc(C(=N)N)cc2)cc1 [Pentamidine] [listing 1 of 2 here]
IC50 of gametocyte viability [6]: 0.397 µM
IC50 of gametocyte viability [7]: 0.591 µM
IC50 of gametocyte viability [8]: 0.697 µM
IC50 of gametocyte viability [9]: 0.813 µM
IC50 of gametocyte viability [10]: 2.14 µM

C[C@]12CC[C@H](OS(=O)(=O)O)CC1=CC[C@@H]1[C@@H]2CC[C@]2(C)C(=O)CC[C@@H]12 [dehydroepiandrosterone sulphate]
IC50 of gametocyte viability [6]: > 12.5 µM
IC50 of gametocyte viability [7]: > 12.5 µM
IC50 of gametocyte viability [8]: > 12.5 µM
IC50 of gametocyte viability [9]: > 12.5 µM
IC50 of gametocyte viability [10]: > 12.5 µM

Nc1ccc(S(=O)(=O)Nc2ncccn2)cc1 [Sulfadiazine]
IC50 of gametocyte viability [1]: > 12.5 µM
IC50 of gametocyte viability [2]: > 12.5 µM
IC50 of gametocyte viability [3]: > 12.5 µM
IC50 of gametocyte viability [4]: > 12.5 µM
IC50 of gametocyte viability [5]: > 12.5 µM

Clc1ccc2c(N3CCN(CCCN4CCN(c5ccnc6cc(Cl)ccc56)CC4)CC3)ccnc2c1 [Piperaquine phosphate]
IC50 of gametocyte viability [1]: 0.0223 µM
IC50 of gametocyte viability [2]: 0.0262 µM
IC50 of gametocyte viability [3]: > 4.17 µM
IC50 of gametocyte viability [4]: > 4.17 µM
IC50 of gametocyte viability [5]: > 4.17 µM

N=C(N)c1ccc(OCCCCCOc2ccc(C(=N)N)cc2)cc1 [Pentamidine] [listing 2 of 2 here]
IC50 of gametocyte viability [1]: 0.713 µM
IC50 of gametocyte viability [2]: 0.878 µM
IC50 of gametocyte viability [3]: 1.19 µM
IC50 of gametocyte viability [4]: 1 µM
IC50 of gametocyte viability [5]: 2.36 µM
